{"source": "patent US20020086278A1", "about": "“CHROMOGENIC MEDIA CONTAINING BLOOD OR HEMIN” (priority 1999, published 2002)", "key": {"[1]": {"test_system": "S. milleri (stmi)", "experiment": "Example 3: colony color on chromogenic TSA II with 5% sheep blood (chromogen in medium)", "assay_type": "cell-based"}, "[2]": {"test_system": "Staphylococcus aureus (stau)", "experiment": "Example 3: colony color on chromogenic TSA II with 5% sheep blood (chromogen in medium)", "assay_type": "cell-based"}, "[3]": {"test_system": "Escherichia coli 25922", "experiment": "Example 1: growth and colony color on plates surface-spread with chromogen", "assay_type": "cell-based", "settings": "E. coli 25922"}, "[4]": {"test_system": "N. gonorrhoeae 35201", "experiment": "Example 1: growth and colony color on plates surface-spread with chromogen", "assay_type": "cell-based", "settings": "Summary of Table I; N. gonorrhoeae 35201"}, "[5]": {"test_system": "E. coli (non-O157) (esco)", "assay_type": "cell-based", "settings": "chromogenic TSA II with 5% Sheep Blood, 0.1 g/l; 3 strains tested"}, "[6]": {"test_system": "Salmonella spp. (sasp)", "assay_type": "cell-based", "settings": "for Colony Color: CO2, 18 h"}, "[7]": {"test_system": "Group B Strep. 12386", "experiment": "Example 1: growth and colony color on plates surface-spread with chromogen", "assay_type": "cell-based", "settings": "for Color: Group B Strep 12386"}, "[8]": {"test_system": "Klebsiella pneumoniae (klpn)", "experiment": "Example 3: colony color on chromogenic TSA II with 5% sheep blood (chromogen in medium)", "assay_type": "cell-based", "settings": "for Colony Color: CO2, 18 h"}, "[9]": {"test_system": "Branhamella catarrhalis 25238", "experiment": "Example 1: growth and colony color on plates surface-spread with chromogen", "assay_type": "cell-based", "settings": "TSA Plain; B. catt 25258"}, "[10]": {"test_system": "Pseudomonas aeruginosa (psae)", "experiment": "Example 3: colony color on chromogenic TSA II with 5% sheep blood (chromogen in medium)", "assay_type": "cell-based", "settings": "for Colony Color: CO2, 18 h"}, "[11]": {"test_system": "Serratia marcescens (sema)", "experiment": "Example 3: colony color on chromogenic TSA II with 5% sheep blood (chromogen in medium)", "assay_type": "cell-based"}, "[12]": {"test_system": "Streptococcus agalactiae (stag)", "experiment": "Example 3: colony color on chromogenic TSA II with 5% sheep blood (chromogen in medium)", "assay_type": "cell-based", "settings": "chromogenic TSA II with 5% Sheep Blood, 0.1 g/l; 3 strains tested"}, "[13]": {"test_system": "S. pneumoniae (stpn)", "experiment": "Example 3: colony color on chromogenic TSA II with 5% sheep blood (chromogen in medium)", "assay_type": "cell-based", "settings": "for Colony Color on Various Chromogenic TSA II with 5% Sheep Blood: CO2, 18 h"}, "[14]": {"test_system": "Aeromonas hydrophilia (aehy)", "experiment": "Example 3: colony color on chromogenic TSA II with 5% sheep blood (chromogen in medium)", "assay_type": "cell-based", "settings": "for Colony Color: CO2, 18 h"}, "[15]": {"test_system": "Entercoccus faecalis (enfa)", "experiment": "Example 3: colony color on chromogenic TSA II with 5% sheep blood (chromogen in medium)", "assay_type": "cell-based", "settings": "for Colony Color: CO2, 18 h"}, "[16]": {"test_system": "E. coli 25922", "experiment": "Example 2: effect of incubation conditions on colony color formation", "assay_type": "cell-based, Escherichia coli", "settings": "0.004 g/plate"}, "[17]": {"test_system": "Gardnerella vaginalis 14019", "experiment": "Example 1: growth and colony color on plates surface-spread with chromogen", "assay_type": "cell-based", "settings": "Summary of Table I; G. vaginalis 14014"}, "[18]": {"test_system": "milu 9341", "experiment": "Example 3: colony color on chromogenic TSA II with 5% sheep blood (chromogen in medium)", "assay_type": "cell-based", "settings": "CO2, 18 h"}, "[19]": {"test_system": "S pyogenes (stpy)", "experiment": "Example 3: colony color on chromogenic TSA II with 5% sheep blood (chromogen in medium)", "assay_type": "cell-based", "settings": "CO2, 18 h"}, "[20]": {"test_system": "Branhamella catarrhalis (brca)", "experiment": "Example 3: colony color on chromogenic TSA II with 5% sheep blood (chromogen in medium)", "assay_type": "cell-based", "settings": "for Colony Color: CO2, 18 h"}, "[21]": {"test_system": "Citrobacter freundii (cifr)", "experiment": "Example 3: colony color on chromogenic TSA II with 5% sheep blood (chromogen in medium)", "assay_type": "cell-based", "settings": "for Colony Color: CO2, 18 h"}, "[22]": {"test_system": "S. agalactiae 12386", "experiment": "Example 2: effect of incubation conditions on colony color formation", "assay_type": "cell-based, Streptococcus agalactiae", "settings": "0.004 g/plate, 24 h, CO2"}, "[23]": {"test_system": "E. faecium (enfu)", "experiment": "Example 3: colony color on chromogenic TSA II with 5% sheep blood (chromogen in medium)", "assay_type": "cell-based"}, "[24]": {"test_system": "Candida albicans (caal)", "experiment": "Example 3: colony color on chromogenic TSA II with 5% sheep blood (chromogen in medium)", "assay_type": "cell-based"}, "[25]": {"settings": "chromogenic TSA II with 5% Sheep Blood, 0.1 g/l, 2 strains tested"}, "[26]": {"settings": "chromogenic TSA II with 5% Sheep Blood, 0.1 g/l, 3 strains tested"}, "[27]": {"settings": "chromogenic TSA II with 5% Sheep Blood, 0.1 g/l, 1 strain tested"}, "[28]": {"settings": "chromogenic TSA II with 5% Sheep Blood, 0.1 g/l, 6 strains tested"}}, "note": "“Also recorded” adds a separate entry of the source. Read-outs that look alike come from different tables or passages of the source."}
{"smiles": "O=C(O)[C@H]1O[C@@H](Oc2c[nH]c3ccc(Br)c(Cl)c23)[C@H](O)[C@@H](O)[C@@H]1O", "note": "[X-Glucuro, X-Glucuronide]", "values": [{"measurement": "Colony Color (Summary)", "setting": "[1]; [25]", "result": 0}, {"measurement": "Colony Color on Various Chromogenic TSA II with 5% Sheep Blood", "setting": "[1]; stmi 6242, CO2, 18 h", "result": 0}, {"measurement": "Colony Color (Summary)", "setting": "[2]; chromogenic TSA II with 5% Sheep Blood, 0.1 g/l, 5 strains tested", "result": 0}, {"measurement": "Colony Color", "setting": "[2]; stau 25923, CO2, 18 h", "result": 0}, {"measurement": "Colony Color on Various Chromogenic TSA II with 5% Sheep Blood", "setting": "[2]; stau t006, CO2, 18 h", "result": 0}, {"measurement": "Colony Color on Various Chromogenic TSA II with 5% Sheep Blood", "setting": "[2]; stau t007, CO2, 18 h", "result": 0}, {"measurement": "Colony Color on Various Chromogenic TSA II with 5% Sheep Blood", "setting": "[2]; stau t008, CO2, 18 h", "result": 0}, {"measurement": "Colony Color on Various Chromogenic TSA II with 5% Sheep Blood", "setting": "[2]; stau t009, CO2, 18 h", "result": 0}, {"measurement": "Color", "setting": "[3]; Choc II", "result": "blue"}, {"measurement": "Substrates Producing Color", "setting": "[3]; Summary of Table I", "result": "X-Glucuro"}, {"measurement": "Color", "setting": "[3]; TSA II 5SB", "result": "blue"}, {"measurement": "Color", "setting": "[3]; TSA Plain", "result": "blue"}, {"measurement": "Substrates Producing Growth Inhibition", "setting": "[4]", "result": "X-Glucuro"}, {"measurement": "Colony Color (Summary)", "setting": "[5]", "result": "+"}, {"measurement": "Colony Color (Summary)", "setting": "[6]; [25]", "result": 0}, {"measurement": "Colony Color", "setting": "[6]; saty 19430", "result": 0}, {"measurement": "Colony Color", "setting": "[6]; satym 14028", "result": 0}, {"measurement": "Color", "setting": "[7]; Choc II", "result": "blue"}, {"measurement": "Substrates Producing Color", "setting": "[7]; Summary of Table I, Group B Strep. 12386", "result": "Glucuro"}, {"measurement": "Color", "setting": "[7]; TSA II 5SB", "result": "blue with beta hemolysis; also recorded: blue (a)"}, {"measurement": "Color", "setting": "[7]; TSA Plain", "result": "blue"}, {"measurement": "Colony Color (Summary)", "setting": "[8]; [26]", "result": 0}, {"measurement": "Colony Color", "setting": "[8]; klpn 13883", "result": 0}, {"measurement": "Colony Color", "setting": "[8]; klpn 33495", "result": 0}, {"measurement": "Colony Color", "setting": "[8]; klpn 33606", "result": 0}, {"measurement": "Growth", "setting": "[9]", "result": ">>"}, {"measurement": "Colony Color (Summary)", "setting": "[10]; [26]", "result": 0}, {"measurement": "Colony Color", "setting": "[10]; psae 9027", "result": 0}, {"measurement": "Colony Color", "setting": "[10]; psae 15442", "result": 0}, {"measurement": "Colony Color", "setting": "[10]; psae 33607", "result": 0}, {"measurement": "Colony Color (Summary)", "setting": "[11]; [27]", "result": 0}, {"measurement": "Colony Color", "setting": "[11]; sema 13880, CO2, 18 h", "result": 0}, {"measurement": "Colony Color (Summary)", "setting": "[12]", "result": 0}, {"measurement": "Colony Color (Summary)", "setting": "[13]; [28]", "result": 0}, {"measurement": "Colony Color on Various Chromogenic TSA II with 5% Sheep Blood", "setting": "[13]; stpn t259", "result": 0}, {"measurement": "Colony Color on Various Chromogenic TSA II with 5% Sheep Blood", "setting": "[13]; stpn t260", "result": 0}, {"measurement": "Colony Color on Various Chromogenic TSA II with 5% Sheep Blood", "setting": "[13]; stpn t331", "result": 0}, {"measurement": "Colony Color on Various Chromogenic TSA II with 5% Sheep Blood", "setting": "[13]; stpn t628", "result": 0}, {"measurement": "Colony Color", "setting": "[14]; aehy 7965", "result": 0}, {"measurement": "Colony Color", "setting": "[14]; aehy 7966", "result": 0}, {"measurement": "Colony Color", "setting": "[14]; aehy 49847", "result": 0}, {"measurement": "Colony Color (Summary)", "setting": "[14]; [26]", "result": 0}, {"measurement": "Colony Color (Summary)", "setting": "[15]; [28]", "result": 0}, {"measurement": "Colony Color", "setting": "[15]; enfa 597", "result": 0}, {"measurement": "Colony Color", "setting": "[15]; enfa 10741", "result": 0}, {"measurement": "Colony Color", "setting": "[15]; enfa 12953", "result": 0}, {"measurement": "Colony Color", "setting": "[15]; enfa 14506", "result": 0}, {"measurement": "Colony Color", "setting": "[15]; enfa 29212", "result": 0}, {"measurement": "Colony Color", "setting": "[16]; Chocolate II Agar, 24 h, air", "result": "blue (d)"}, {"measurement": "Colony Color", "setting": "[16]; TSA II 5% Sheep Blood, 24 h, air", "result": "blue (d)"}, {"measurement": "Colony Color", "setting": "[16]; TSA II 5% Sheep Blood, 5 d, ANA", "result": "blue (m)"}, {"measurement": "Colony Color", "setting": "[16]; TSA II 5% Sheep Blood, 5 d, MA", "result": "blue (m)"}, {"measurement": "Substrates Producing Growth Inhibition", "setting": "[17]", "result": "Glucuro"}, {"measurement": "Colony Color", "setting": "[18]", "result": "ly"}, {"measurement": "Colony Color on Various Chromogenic TSA II with 5% Sheep Blood", "setting": "[19]; stpy 51339", "result": "db beta"}, {"measurement": "Colony Color on Various Chromogenic TSA II with 5% Sheep Blood", "setting": "[19]; stpy t027", "result": 0}, {"measurement": "Colony Color on Various Chromogenic TSA II with 5% Sheep Blood", "setting": "[19]; stpy t028", "result": 0}, {"measurement": "Colony Color on Various Chromogenic TSA II with 5% Sheep Blood", "setting": "[19]; stpy t029", "result": 0}, {"measurement": "Colony Color on Various Chromogenic TSA II with 5% Sheep Blood", "setting": "[19]; stpy t030", "result": 0}, {"measurement": "Colony Color", "setting": "[20]; brca 25238", "result": 0}, {"measurement": "Colony Color", "setting": "[20]; brca 25240", "result": 0}, {"measurement": "Colony Color (Summary)", "setting": "[20]; [25]", "result": 0}, {"measurement": "Colony Color (Summary)", "setting": "[21]; [25]", "result": 0}, {"measurement": "Colony Color", "setting": "[21]; cifr 8454", "result": 0}, {"measurement": "Colony Color", "setting": "[21]; cifr 33128", "result": 0}, {"measurement": "Colony Color", "setting": "[22]; Chocolate II Agar", "result": "blue (d)"}, {"measurement": "Colony Color", "setting": "[22]; TSA II 5% Sheep Blood", "result": "blue (d)"}, {"measurement": "Colony Color (Summary)", "setting": "[23]; [27]", "result": 0}, {"measurement": "Colony Color", "setting": "[23]; enfu 49032, CO2, 18 h", "result": 0}, {"measurement": "Colony Color", "setting": "[24]; caal 10231, CO2, 18 h", "result": 0}, {"measurement": "Colony Color (Summary)", "setting": "[24]; [25]", "result": 0}]}
